Data: patent US20020051978A1, “Methods and compositions for the identification, assessment, prevention and therapy of human cancers” (priority 2000, published 2002)
Where two headings read alike, the source gives them in different places.

Experiments:
[1] = tested on: 60 cancer cell lines (NCI 60 cancer cell line series); assay: NCI-DTP in vitro cancer screen, sulforhodamine B (SRB) growth inhibition, 48 hour exposure; format: cell-based, human; parameters: key to sensitivity class Ovarian OVCAR-8 CL6005 / sensitivity class Ovarian SK-OV-3 CL6011 / sensitivity class Prostate DU-145 CL11003 / sensitivity class NSCLC NCI-H522 CL1003 / sensitivity class Ovarian IGROV1 CL6010 / sensitivity class Ovarian OVCAR-4 CL6002 / sensitivity class Prostate PC-3(I) CL11001 / sensitivity class Renal A498 CL9013 / sensitivity class Renal SN12C CL9008: sensitivity class: 1 = Low, 2 = Medium, 3 = High
How it was run: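 Sixty NCI-DTP cancer lines plated at line-specific densities, dosed on day 1 in duplicate with 5 concentrations at ten-fold intervals. After 48 h exposure, cell mass read by SRB staining; GI50 (50% growth inhibition) taken from dose-response curves and expressed as -log GI50.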

[2] = tested on: 60 cancer cell lines (NCI 60 cancer cell line series); conditions: cited from earlier work

COc1cc([C@@H]2c3cc4c(cc3[C@@H](O[C@@H]3O[C@@H]5CO[C@@H](c6cccs6)O[C@H]5[C@H](O)[C@H]3O)[C@H]3COC(=O)[C@H]23)OCO4)cc(OC)c1O [Teniposide]
classification of cell line as Low(1), Medium(2) or High(3) sensitivity to compound ([1]; Breast BT-549 (CL5013)): 2
classification of cell line as Low(1), Medium(2) or High(3) sensitivity to compound ([1]; Breast HS-578T CL5006): 2
classification of cell line as Low(1), Medium(2) or High(3) sensitivity to compound ([1]; Breast MCF7(I) (CL5001)): 3
classification of cell line as Low(1), Medium(2) or High(3) sensitivity to compound ([1]; Breast MCF7/ADRr (CL5002)): 1
classification of cell line as Low(1), Medium(2) or High(3) sensitivity to compound ([1]; Breast MDA-MB-231 CL5005): 2
classification of cell line as Low(1), Medium(2) or High(3) sensitivity to compound ([1]; Breast MDA-MB-435 (CL5011)): 2
classification of cell line as Low(1), Medium(2) or High(3) sensitivity to compound ([1]; Breast MDA-N CL5012): 2
classification of cell line as Low(1), Medium(2) or High(3) sensitivity to compound ([1]; Breast T-47D (CL5014)): 2
classification of cell line as Low(1), Medium(2) or High(3) sensitivity to compound ([1]; CNS SF-268 CL12014): 2
classification of cell line as Low(1), Medium(2) or High(3) sensitivity to compound ([1]; CNS SF-295 CL12015): 2
classification of cell line as Low(1), Medium(2) or High(3) sensitivity to compound ([1]; CNS SF-539 CL12016): 2
classification of cell line as Low(1), Medium(2) or High(3) sensitivity to compound ([1]; CNS SNB-19 (CL12002)): 2
classification of cell line as Low(1), Medium(2) or High(3) sensitivity to compound ([1]; CNS SNB-75(I) CL12005): 2
classification of cell line as Low(1), Medium(2) or High(3) sensitivity to compound ([1]; CNS U251(I) CL12009): 2
classification of cell line as Low(1), Medium(2) or High(3) sensitivity to compound ([1]; Colon COLO-250 CL4010): 2
classification of cell line as Low(1), Medium(2) or High(3) sensitivity to compound ([1]; Colon HCC-2998 (CL4002)): 2
classification of cell line as Low(1), Medium(2) or High(3) sensitivity to compound ([1]; Colon HCT-15 CL4015): 2
classification of cell line as Low(1), Medium(2) or High(3) sensitivity to compound ([1]; Colon HCT-116 (CL4003)): 2
classification of cell line as Low(1), Medium(2) or High(3) sensitivity to compound ([1]; Colon HT29(I) CL4001): 2
classification of cell line as Low(1), Medium(2) or High(3) sensitivity to compound ([1]; Colon KM12 (CL4017)): 2
classification of cell line as Low(1), Medium(2) or High(3) sensitivity to compound ([1]; Colon SW-620 (CL4009)): 2
classification of cell line as Low(1), Medium(2) or High(3) sensitivity to compound ([1]; Leukemia CCRF-CEM(I) (CL7003)): 3
classification of cell line as Low(1), Medium(2) or High(3) sensitivity to compound ([1]; Leukemia HL-60(I) (CL7008)): 3
classification of cell line as Low(1), Medium(2) or High(3) sensitivity to compound ([1]; Leukemia K562(I) CL7005): 2
classification of cell line as Low(1), Medium(2) or High(3) sensitivity to compound ([1]; Leukemia MOLT-4 (CL7006)): 3
classification of cell line as Low(1), Medium(2) or High(3) sensitivity to compound ([1]; Leukemia RPMI-8226(I) (CL7010)): 2
classification of cell line as Low(1), Medium(2) or High(3) sensitivity to compound ([1]; Leukemia SR CL7019): 3
classification of cell line as Low(1), Medium(2) or High(3) sensitivity to compound ([1]; Melanoma LOX IMVI CL10001): 2
classification of cell line as Low(1), Medium(2) or High(3) sensitivity to compound ([1]; Melanoma M14 (CL10014)): 2
classification of cell line as Low(1), Medium(2) or High(3) sensitivity to compound ([1]; Melanoma MALME-3M CL10002): 2
sensitivity class NSCLC NCI-H23(I) CL1001 ([1]; cell line NSCLC NCI-H23(I), CL1001): 2
sensitivity class NSCLC NCI-H332M CL1017 ([1]; cell line NSCLC NCI-H332M, CL1017): 1
sensitivity class NSCLC NCI-H460 CL1021 ([1]; cell line NSCLC NCI-H460, CL1021): 3
sensitivity class NSCLC NCI-H522 CL1003 ([1]; cell line NSCLC NCI-H522, CL1003): 2
sensitivity class Ovarian IGROV1 CL6010 ([1]; cell line Ovarian IGROV1, CL6010): 2
sensitivity class Ovarian OVCAR-3 CL6001 ([1]; cell line Ovarian OVCAR-3, CL6001): 2
sensitivity class Ovarian OVCAR-4 CL6002 ([1]; cell line Ovarian OVCAR-4, CL6002): 1
sensitivity class Ovarian OVCAR-5 CL6003 ([1]; cell line Ovarian OVCAR-5, CL6003): 2
sensitivity class Ovarian OVCAR-8 CL6005 ([1]; cell line Ovarian OVCAR-8, CL6005): 2
sensitivity class Ovarian SK-OV-3 CL6011 ([1]; cell line Ovarian SK-OV-3, CL6011): 2
sensitivity class Prostate DU-145 CL11003 ([1]; cell line Prostate DU-145, CL11003): 2
sensitivity class Prostate PC-3(I) CL11001 ([1]; cell line Prostate PC-3(I), CL11001): 2
sensitivity class Renal 786-O CL9018 ([1]; cell line Renal 786-O, CL9018): 2
sensitivity class Renal A498 CL9013 ([1]; cell line Renal A498, CL9013): 2
sensitivity class Renal ACHN CL9023 ([1]; cell line Renal ACHN, CL9023): 2
sensitivity class Renal CAKI-1 CL9015 ([1]; cell line Renal CAKI-1, CL9015): 3
sensitivity class Renal RXF-393 CL9016 ([1]; cell line Renal RXF-393, CL9016): 2
sensitivity class Renal SN12C CL9008 ([1]; cell line Renal SN12C, CL9008): 2
sensitivity class Renal TK10 CL9024 ([1]; cell line Renal TK10, CL9024): 2
sensitivity class Renal UO-31 CL9004 ([1]; cell line Renal UO-31, CL9004): 1
-Log (GI50) ([2]; Breast BT-549 (CL5013)): 6.2
-Log (GI50) ([2]; Breast HS-578T CL5006): 6.4
-Log (GI50) ([2]; Breast MCF7(I) (CL5001)): 7.4
-Log (GI50) ([2]; Breast MCF7/ADRr (CL5002)): 4.6
-Log (GI50) ([2]; Breast MDA-MB-231 CL5005): 6.0
-Log (GI50) ([2]; Breast MDA-MB-435 (CL5011)): 5.9
-Log (GI50) ([2]; Breast MDA-N CL5012): 6.0
-Log (GI50) ([2]; Breast T-47D (CL5014)): 6.8
-Log (GI50) ([2]; CNS SF-268 CL12014): 6.3
-Log (GI50) ([2]; CNS SF-295 CL12015): 6.8
-Log (GI50) ([2]; CNS SF-539 CL12016): 6.7
-Log (GI50) ([2]; CNS SNB-19 (CL12002)): 6.5
-Log (GI50) ([2]; CNS SNB-75(I) CL12005): 6.3
-Log (GI50) ([2]; CNS U251(I) CL12009): 6.8
-Log (GI50) ([2]; Colon COLO-250 CL4010): 6.3
-Log (GI50) ([2]; Colon HCC-2998 (CL4002)): 6.2
-Log (GI50) ([2]; Colon HCT-15 CL4015): 5.8
-Log (GI50) ([2]; Colon HCT-116 (CL4003)): 6.1
-Log (GI50) ([2]; Colon HT29(I) CL4001): 5.8
-Log (GI50) ([2]; Colon KM12 (CL4017)): 6.1
-Log (GI50) ([2]; Colon SW-620 (CL4009)): 6.6
-Log (GI50) ([2]; Leukemia CCRF-CEM(I) (CL7003)): 7.3
-Log (GI50) ([2]; Leukemia HL-60(I) (CL7008)): 7.3
-Log (GI50) ([2]; Leukemia K562(I) CL7005): 6.1
-Log (GI50) ([2]; Leukemia MOLT-4 (CL7006)): 7.8
-Log (GI50) ([2]; Leukemia RPMI-8226(I) (CL7010)): 6.8
-Log (GI50) ([2]; Leukemia SR CL7019): 7.9
-Log (GI50) ([2]; Melanoma LOX IMVI CL10001): 6.7
-Log (GI50) ([2]; Melanoma M14 (CL10014)): 6.2
-Log (GI50) ([2]; Melanoma MALME-3M CL10002): 6.2
-Log (GI50) ([2]; NCSLC NCI-H522 CL1003): 6.3
-Log (GI50) ([2]; NSCLC NCI-H23(I) CL1001): 6.4
-Log (GI50) ([2]; NSCLC NCI-H332M CL1017): 5.5
-Log (GI50) ([2]; NSCLC NCI-H460 CL1021): 7.8
-Log (GI50) ([2]; Ovarian IGROV1 CL6010): 5.8
-Log (GI50) ([2]; Ovarian OVCAR-3 CL6001): 5.8
-Log (GI50) ([2]; Ovarian OVCAR-4 CL6002): 5.3
-Log (GI50) ([2]; Ovarian OVCAR-5 CL6003): 5.8
-Log (GI50) ([2]; Ovarian OVCAR-8 CL6005): 6.3
-Log (GI50) ([2]; Ovarian SK-OV-3 CL6011): 6.4
-Log (GI50) ([2]; Prostate DU-145 CL11003): 6.5
-Log (GI50) ([2]; Prostate PC-3(I) CL11001): 6.0
-Log (GI50) ([2]; Renal 786-O CL9018): 6.5
-Log (GI50) ([2]; Renal A498 CL9013): 6.4
-Log (GI50) ([2]; Renal ACHN CL9023): 6.8
-Log (GI50) ([2]; Renal CAKI-1 CL9015): 7.1
-Log (GI50) ([2]; Renal RXF-393 CL9016): 6.3
-Log (GI50) ([2]; Renal SN12C CL9008): 6.5
-Log (GI50) ([2]; Renal TK10 CL9024): 5.8
-Log (GI50) ([2]; Renal UO-31 CL9004): 5.4
